Legend:
[1] = target: PB2 (FLAG-tagged, A/WSN-FLAG) (Influenza A virus, UniProt P03427); type: cell-based, influenza A/WSN/1933(H1N1)
[2] = tested on: influenza A strains (H1N1, H3N2, H3N3, H3N8, H5N1); type: cell-based
[3] = tested on: influenza B virus strains (B/Mem, B/Wis, B/Bris); type: cell-based
influenza B/Mem [4] = type: cell-based, influenza B/Memphis/12/97
influenza B/Mem [5] = type: cell-based, influenza B/Memphis/12/97; remark: listed apart in the source
influenza B/Mem [6] = tested on: influenza B/Mem; parameters: species or system BALB/c mice; settings: mouse, in vivo, iv, 2.5 mg/kg
[7] = tested on: PB2CB from influenza B/Mem (PB2IBV); type: biochemical
[8] = tested on: ZIKV (African strain MR766); assay: microbe, parasite or virus in culture; type: cell-based, Zika virus
[9] = mouse, in vivo, iv, 10 mg/kg
[10] = target: mouse PrP^C in L929 15.9 and CAD5 cells (Mus musculus, UniProt P04925)
[11] = tested on: influenza A strains: H1N1 strain A/PR8 and H5N1 strain A/NIBRG-14; type: cell-based
[12] = target: the molecule itself

Chain of PB2 (FLAG-tagged, A/WSN-FLAG) (P03427 whole entry, looked up): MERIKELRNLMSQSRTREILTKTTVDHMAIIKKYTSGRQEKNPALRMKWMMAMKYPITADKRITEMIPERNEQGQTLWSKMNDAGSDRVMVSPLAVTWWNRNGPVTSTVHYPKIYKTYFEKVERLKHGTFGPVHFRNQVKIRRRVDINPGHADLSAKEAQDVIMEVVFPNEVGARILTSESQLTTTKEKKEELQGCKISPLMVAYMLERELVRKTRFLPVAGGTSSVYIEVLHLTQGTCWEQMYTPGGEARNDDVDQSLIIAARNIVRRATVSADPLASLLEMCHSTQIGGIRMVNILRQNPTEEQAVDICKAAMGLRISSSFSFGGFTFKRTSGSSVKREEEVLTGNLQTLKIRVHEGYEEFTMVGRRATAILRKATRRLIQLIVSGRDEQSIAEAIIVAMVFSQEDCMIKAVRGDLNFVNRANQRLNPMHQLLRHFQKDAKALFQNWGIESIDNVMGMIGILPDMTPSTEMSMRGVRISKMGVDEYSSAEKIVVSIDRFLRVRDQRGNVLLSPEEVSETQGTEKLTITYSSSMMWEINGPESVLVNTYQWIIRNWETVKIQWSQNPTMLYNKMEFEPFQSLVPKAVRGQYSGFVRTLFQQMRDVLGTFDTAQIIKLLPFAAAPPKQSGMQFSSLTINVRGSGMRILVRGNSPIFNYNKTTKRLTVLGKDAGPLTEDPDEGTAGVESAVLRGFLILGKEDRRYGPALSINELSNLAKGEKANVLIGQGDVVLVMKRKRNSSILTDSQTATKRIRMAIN
Chain of mouse PrP^C in L929 15.9 and CAD5 cells (P04925 23-230 limits assumed): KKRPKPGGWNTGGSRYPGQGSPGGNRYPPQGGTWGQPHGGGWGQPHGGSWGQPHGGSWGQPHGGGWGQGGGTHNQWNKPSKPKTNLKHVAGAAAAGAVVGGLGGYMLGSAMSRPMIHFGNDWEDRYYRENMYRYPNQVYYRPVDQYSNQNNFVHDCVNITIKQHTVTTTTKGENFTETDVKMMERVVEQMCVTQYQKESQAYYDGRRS

Ac-WDLIQLIVSDGSDLIQLIVSD-NH2 [12B]
soluble PB2 in infected cells [1]: reduction of soluble PB2 | antiviral activity on influenza A strains with APR polymorphisms [2]: retains activity against all these influenza A strains | antiviral activity in time of addition assays and pretreatment of influenza B virion particles [3]: showed no antiviral activity | effect on replication of influenza B virus strains [3]: did not interfere with the replication | influenza B replication in multicycle replication assay (influenza B/Mem [4]): unaffected | protection against cytopathic effects of influenza B (influenza B/Mem [5]): no protection against cytopathic effects | influenza B replication in the murine infection model (viral load in lungs) (influenza B/Mem [6]): not affected | effect on aggregation or conformational stability of PB2IBV (Th-T, ANS) [7]: showed no effect on the aggregation or conformational stability | interference with ZIKV replication [8]: no interference with ZIKV replication is observed | aspecific toxic effects on MDCK cells (MDCK cells): no aspecific toxic effects were observed | aspecific toxic effects on HEK 293T cells (HEK 293T cells): no aspecific toxic effects were observed | blood analysis and histopathological evaluation of all major organs [9]: revealed no abnormalities | conversion of PrP to the aggregated prion state (PrP^SC) [10]: incapable to convert PrP

C[C@@]1(O)[C@H](O)[C@@H](CO)O[C@H]1n1ccc2c(N)ncnc21 [7-DMA, 7-deaza-2′-C-methyladenosine, reference compound]
IC50 ([8]; Zika virus, Vero C1008, 48 h, n = 3, read-out: IC50, fraction of ZIKV-infected cells): 4.74 ± 0.31 µM | aspecific toxicity on the mammalian host cell (Vero E6 cells): did not originate from aspecific toxicity

Ac-RLIQLIVSRPPRLIQLIVSR-NH2 [compound 12]
amount of newly produced virus (TCID50 titration), antiviral screen [11]: showed the most pronounced effect | aspecific cytotoxic effects on MDCK cells (MDCK cells): did not originate from aspecific cytotoxic effects

B1: peptide 12B (peptide)
peptide: WDLIQLIVSDGSDLIQLIVSD
notes: also called amyloid peptide 12B; synthetic amyloid 12B; source: synthetic peptide
binding result [12]: binds

Source: paper PMC7275043 (Nature Communications, 2020)
